Consider 43 compounds from ChEMBL document CHEMBL3091347, “Comparison of Multiple Linear Regressions and Neural Networks based QSAR models for the design of new antitubercular compounds” (Eur J Med Chem, 2013).

Data set [1] deals with Mycobacterium tuberculosis. In words: Antitubercular activity against Mycobacterium tuberculosis. Format: functional. The following applies: for MIC: Mycobacterium tuberculosis.
Data set [2] is described as follows: Lipophilicity, log P of the compound. The following applies: octanol/water.
For data set [3], the system named is Mycobacterium tuberculosis. In words: Antitubercular activity against Mycobacterium tuberculosis H37Rv. Format: functional. As to conditions: for MIC: Mycobacterium tuberculosis, H37Rv.

Values after ≈ are worked out from the molar mass of the structure shown.

In general, MIC refers to the lowest concentration that inhibits growth of the organism. A low value points to inhibition by little substance. As a reminder, the logP is the decadic logarithm of the partition coefficient of the neutral form, usually between octanol and water. Consider `NNC(=O)c1ccnc2ccccc12`, for which, in data set [1], the “log(1/MIC)” value was -1.9 and the MIC worked out at 80 µg/mL (≈ 427 µM). This compound also yielded a logP in data set [2] (logP) of -1.35.
On to `N/C(COc1ccc(Cl)cc1)=N\NC(=O)c1ccncc1`, for which, in data set [3], the “log(1/MIC)” value is given as -0.494 and the MIC is 3.12 µg/mL (≈ 10.2 µM). The compound also displayed a logP in data set [2] (logP) of 1.34.
As to `Cc1ccccc1OC/C(N)=N/NC(=O)c1ccncc1`, in data set [3], the “log(1/MIC)” value is -1.097 and 12.5 µg/mL (≈ 44 µM) was the least that counted as inhibitory (MIC). The same compound showed a logP in data set [2] (logP) of 1.27.
Turning to `C/C(=N\NC(=O)c1ccncc1)c1cccc(CN2CCN(c3ccc(F)cc3)CC2)c1O`, in data set [3], the “log(1/MIC)” value is reported as 0.3963 and the MIC turned out to be 0.4 µg/mL (≈ 0.894 µM). In addition, the logP in data set [2] (logP) came out at 3.68.
For `CCCCCCCCC(=O)NNC(=O)c1ccncc1`, in data set [3], the “log(1/MIC)” value is on record as 1.602 and the lowest concentration to inhibit growth (MIC) was 0.03 µg/mL (≈ 0.108 µM). Further, the logP in data set [2] (logP) was 2.22.
Turning to `Cc1cccc(OC/C(N)=N/NC(=O)c2ccncc2)c1`, in data set [3], the “log(1/MIC)” value is recorded as -0.494 and the MIC worked out at 3.12 µg/mL (≈ 11 µM). The compound further returned a logP in data set [2] (logP) of 1.27.
Taken in the same sequence, the figures for `Cc1ccc(OC/C(N)=N/NC(=O)c2ccncc2)cc1` were -0.796, 6.25 µg/mL (≈ 22 µM) and 1.27.
Consider `N/C(COc1cccc(Cl)c1)=N\NC(=O)c1ccncc1`, for which, in data set [3], the “log(1/MIC)” value was -0.494 and the MIC stood at 3.12 µg/mL (≈ 10.2 µM). The compound also returned a logP in data set [2] (logP) of 1.34.
With `C/C(=N\NC(=O)c1ccncc1)c1cccc(CN2CCNCC2)c1O`, in data set [3], the “log(1/MIC)” value amounted to 0.6866 and 0.21 µg/mL (≈ 0.594 µM) was the least that counted as inhibitory (MIC). In data set [2] (logP), the logP came to 1.05.
On the same counts, the results for `C/C(=N\NC(=O)c1ccncc1)c1cccc(CN(Cc2ccccc2)Cc2ccccc2)c1O` are -0.2063, 1.61 µg/mL (≈ 3.47 µM) and 4.33.
Taken in the same sequence, the figures for `C/C(=N\NC(=O)c1ccncc1)c1cccc(CN2CCN(c3cc4c(cc3F)c(=O)c(C(=O)O)cn4C3CC3)CC2)c1O` were 0.09913, 0.8 µg/mL (≈ 1.34 µM) and 4.2.
On the same counts, the results for `CCn1cc(C(=O)O)c(=O)c2cc(F)c(N3CCN(Cc4cccc(/C(C)=N/NC(=O)c5ccncc5)c4O)C(C)C3)c(F)c21` (centres undefined) are 0.09873, 0.8 µg/mL (≈ 1.29 µM) and 4.81.
Consider `C/C(=N\NC(=O)c1ccncc1)c1cccc(CN2CCN(c3ccccn3)CC2)c1O`, for which, in data set [3], the “log(1/MIC)” value is reported as 0.3979 and the MIC is 0.4 µg/mL (≈ 0.929 µM). In data set [2] (logP), this compound displayed a logP of 2.59.
As for `C/C(=N\NC(=O)c1ccncc1)c1cccc(CN2CCN(Cc3ccccc3)CC2)c1O`, in data set [3], the “log(1/MIC)” value came to 0.3951 and the minimal inhibitory concentration (MIC) amounted to 0.4 µg/mL (≈ 0.902 µM). The compound also yielded a logP in data set [2] (logP) of 3.83.
`Cc1ncnc(O)c1C(=O)NN`: in data set [1], the “log(1/MIC)” value was -2.6 and the MIC was determined as 400 µg/mL (≈ 2380 µM). Besides, in data set [2] (logP), the logP was -2.88.
For the compound `N/N=C/C(O)C(O)C(O)C(CC(=O)c1ccncc1)C(=O)c1ccncc1` (centres undefined), in data set [1], the “log(1/MIC)” value is listed as 1.4 and the MIC was found to be 0.04 µg/mL (≈ 0.107 µM). Besides, in data set [2], the logP is -5.16.
`CC(C)Cc1cc(C(=O)NN)ccn1`: in data set [1], the “log(1/MIC)” value was -1.94 and the MIC is 87 µg/mL (≈ 450 µM). In data set [2] (logP), this compound showed a logP of -0.216.
On the same counts, the results for `CCOc1cc(C(=O)NN)ccn1` are -1.91, 81.5 µg/mL (≈ 450 µM) and -1.5.
Taken in the same sequence, the figures for `CC(=O)Nc1cc(C(=O)NN)ccn1` were -2.62, 418 µg/mL (≈ 2150 µM) and -2.93.
As to `CCN(CC)c1cc(C(=O)NN)ccn1`, in data set [1], the “log(1/MIC)” value is -2.17 and the MIC is 149 µg/mL (≈ 717 µM). The compound further gave a logP in data set [2] (logP) of -0.546.
Regarding `NNC(=O)c1ccnc(Cl)c1`, in data set [1], the “log(1/MIC)” value is reported as -1.83 and the MIC was 67.3 µg/mL (≈ 392 µM). The compound further came in with a logP in data set [2] (logP) of -1.61.
For `NNC(=O)c1ccnc([N+](=O)[O-])c1`, in data set [1], the “log(1/MIC)” value is reported as -1.83 and inhibition of growth (MIC) required 67.6 µg/mL (≈ 371 µM). In addition, in data set [2] (logP), the logP was -2.21.
As for `NNC(=O)c1ccnc(-c2ccccc2)c1`, in data set [1], the “log(1/MIC)” value is listed as -1.03 and it took 10.7 µg/mL (≈ 50 µM) to inhibit growth (MIC). Moreover, the logP in data set [2] (logP) is -0.634.
For `CC(O)(NNC(=O)c1ccncc1)C(=O)O` (centres undefined), in data set [1], the “log(1/MIC)” value was determined as 1.22 and the MIC came to 0.06 µg/mL (≈ 0.266 µM). In addition, in data set [2] (logP), the logP is -2.78.
In the case of `O=C(NNC(O)C(Cl)(Cl)Cl)c1ccncc1` (centres undefined), in data set [1], the “log(1/MIC)” value amounted to 1.4 and the MIC was 0.04 µg/mL (≈ 0.141 µM). Besides, the logP in data set [2] was -1.22.
For the compound `CC(C)(C#N)NNC(=O)c1ccncc1`, in data set [1], the “log(1/MIC)” value was 1.22 and the MIC turned out to be 0.06 µg/mL (≈ 0.294 µM). For the same compound, the logP in data set [2] (logP) is -0.976.
On the same counts, the results for `CCC(CC)=NNC(=O)c1ccncc1` are 1.7, 0.02 µg/mL (≈ 0.0974 µM) and -0.469.
Consider `CCCCC/C(C)=N/NC(=O)c1ccncc1`, for which, in data set [1], the “log(1/MIC)” value is 1.52 and the MIC was 0.03 µg/mL (≈ 0.129 µM). In data set [2] (logP), this compound returned a logP of 0.589.
With `CCN(CC)c1ccc(/C=N/NC(=O)c2ccncc2)cc1`, in data set [1], the “log(1/MIC)” value is given as 0.22 and the MIC came out at 0.6 µg/mL (≈ 2.02 µM). Moreover, the logP in data set [2] (logP) came to 2.53.
On the same counts, the results for `CCN(CC)CCN(C)c1ccc(/C=N/NC(=O)c2ccncc2)cc1` are 1.1, 0.08 µg/mL (≈ 0.226 µM) and 2.43.
Taken in the same sequence, the figures for `N/N=C/C(CC(=O)c1ccncc1)C(=O)c1ccncc1` (centres undefined) were 0.82, 0.15 µg/mL (≈ 0.531 µM) and -2.83.
With `CC(C)/C=N\NC(=O)c1ccncc1`, in data set [1], the “log(1/MIC)” value stood at 1 and 0.1 µg/mL (≈ 0.523 µM) was the least that counted as inhibitory (MIC). This compound also returned a logP in data set [2] (logP) of -0.998.
Consider `CC(C)CNNC(=O)c1ccncc1`, for which, in data set [1], the “log(1/MIC)” value is 1 and the minimal inhibitory concentration (MIC) turned out to be 0.1 µg/mL (≈ 0.517 µM). The compound also had a logP in data set [2] (logP) of -0.719.
Taken in the same sequence, the figures for `CCC(C)NNC(=O)c1ccncc1` (centres undefined) were 0.4, 0.4 µg/mL (≈ 2.07 µM) and -0.719.
Taken in the same sequence, the figures for `NNC(=O)c1ccnc(F)c1` were -1.61, 40.3 µg/mL (≈ 260 µM) and -2.18.
On the same counts, the results for `Cc1cnccc1C(=O)NN` are -2.3, 200 µg/mL (≈ 1320 µM) and -1.67.
Consider `NNC(=O)c1ccnc(Br)c1`, for which, in data set [1], the “log(1/MIC)” value is on record as -2.12 and 133 µg/mL (≈ 616 µM) was the least that counted as inhibitory (MIC). The same compound showed a logP in data set [2] (logP) of -1.46.
On the same counts, the results for `C/C=N/NC(=O)c1ccncc1` are 1.4, 0.04 µg/mL (≈ 0.245 µM) and -1.93.
Turning to `O=C(NO)c1ccncc1`, in data set [1], the “log(1/MIC)” value was -2.08 and the lowest concentration to inhibit growth (MIC) was 120 µg/mL (≈ 869 µM). The compound further showed a logP in data set [2] (logP) of -2.65.
In the case of `CC(C)=NNC(=O)c1ccncc1`, in data set [1], the “log(1/MIC)” value is recorded as 1.7 and the MIC was determined as 0.02 µg/mL (≈ 0.113 µM). The same compound displayed a logP in data set [2] (logP) of -1.53.
On to `O=C(NN=C1CCCCC1)c1ccncc1`, for which, in data set [1], the “log(1/MIC)” value is given as 2.22 and the lowest concentration to inhibit growth (MIC) was 0.01 µg/mL (≈ 0.046 µM). This compound came in with a lipophilicity (logP) in data set [2] (logP) of -0.334.
Regarding `NNC(=O)c1ccccc1` [BENZOIC ACID HYDRAZIDE], in data set [1], the “log(1/MIC)” value was 0.22 and the MIC turned out to be 0.6 µg/mL (≈ 4.41 µM). In data set [2], this compound had a logP of -0.845.
Taken in the same sequence, the figures for `CC(C)NNC(=O)c1ccncc1` [IPRONIAZID] were 0.4, 0.4 µg/mL (≈ 2.23 µM) and -1.248.
